Like-named read-outs stand apart in the source and are kept apart here. Where no end group is shown, it is not given here.
Tests used:
C. albicans ATCC 10231 [1] = experiment: Cell membrane integrity, propidium iodide uptake; assay type: cell-based, Candida albicans; conditions: 25, 20 and 15 μg/mL (sub-MIC), 24 h
Description: The cell membrane integrity of C. albicans ATCC 10231 after exposure to peptide #14d was evaluated using the PI uptake assay, as described by Bezerra et al., with some modifications. C. albicans ATCC 10231 was incubated with the peptide #14d in the same conditions reported for inhibition of biofilm formation. Thus, 20 μL of propidium iodide (PI, Molecular probes^TM, Fisher Scientific, Erembodegem, Belgium) was added to each well and the plate was incubated in the dark for 30 min at 25 °C. Then, the plate was washed three times with 0.9% NaCl and observed with an Olympus FV1200 confocal microscope with TIRF (Total internal reflection fluorescence) integrated, using an excitation wavelength of 535 nm and emission wavelength of 617 nm.

C. albicans ATCC 10231 [2] = experiment: Overproduction of reactive oxygen species (DCFH-DA); assay type: cell-based, Candida albicans; conditions: 25 and 20 μg/mL
Description: The ROS overproduction in C. albicans ATCC 10231 due to peptide #14d was evaluated using the method described by Bezerra et al., with some modifications. C. albicans ATCC 10231 was incubated with peptide #14d in the same conditions reported for biofilm inhibition formation. Then, the formed biofilm was washed with 0.9% NaCl three times to remove the Sabouraud liquid medium. After this procedure, 20 μL of 2′,7′ dichlorofluorescein diacetate (DCFH-DA) was added to each well and the plate was incubated in the dark for 30 min at 25 °C. DCFH-DA is oxidized by ROS to dichlorofluorescein, which emits green fluorescence. Lastly, the biofilms were washed with 0.9% NaCl three times and observed with a fluorescence microscope with an excitation wavelength of 488 nm and emission wavelength of 525 nm.

C. albicans ATCC 10231 [3] = assay type: cell-based, Candida albicans; conditions: ATCC 10231, 24 h
Description: Sub-MIC concentrations were tested for their ability to interfere with the growth as sessile community of S. aureus ATCC 25923, P. aeruginosa ATCC 15442, and C. albicans ATCC 10231, as previously described. Bacterial strains or the fungal strain were incubated in test tubes with TSB or Sabouraud (5 mL) containing 2% w/v glucose at 37 °C for 24 h. After that, small aliquots (2.5 μL) from the diluted microbial suspensions whose turbidity was equivalent to a 0.5 McFarland standard were added to each well of a polystyrene sterile flat-bottom 96-well plate filled with TSB or BS (200 μL) with 2% w/v glucose. Sub-MIC concentration values of amino acidic fraction from hemocytes and hemolymph of P. clarkii or of chemically synthesized peptides were directly added to the wells and the plates were incubated at 37 °C for 24 h. After biofilm growth, samples were washed twice with sterile 0.9% NaCl and stained with 200 μL of 0.1% w/v crystal violet solution for 15 min at 37 °C [58]. Excess solution was discarded, and the plate was washed twice using tap water. […] Last, the absorbance was determined at 600 nm using a microplate reader (GloMax®-Multi Detection System, Promega Italia s.r.l, Milan, Italy). […] The percentage of inhibition was calculated through the formula:% Inhibition = [(OD growth − OD sample)/OD growth control] × 100. […]

E. coli ATCC 25922 = assay type: cell-based, Escherichia coli
Description: (§1) Natural extracts derived from hemocytes and hemolymph of P. clarkii were liophylized and then resuspended in ultrapure water to obtain a protein content of 22 µg/mL and 1400 µg/mL, respectively. MIC values of extracts were determined by a micro-method previously described based on serial dilution 1:2 of the extracts, using Mueller Hinton II medium and Sabouraud medium (for C. albicans), in 96-well microplates and starting from concentrations of 50% v/v to 1.5 % v/v in a final volume equal to 100 μL. Thus, 10 μL of microbial suspension (5 × 10^6 CFU/ mL) obtained from a bacterial culture grown at 37 °C for 24 h on Tryptic Soy Agar (TSA) in 5 mL of 0.9% NaCl, with a turbidity equivalent to a 0.5 McFarland standard was added to 96-well plates and incubated at 37 °C for 24 h. MICs of extracts were determined by a microplate reader (GloMax®-Multi Detection System, Promega Italia s.r.l, Milan, Italy) with the lowest concentration of the sample whose optical density (OD) at 570 nm was similar to negative control wells (broth without inoculum to control the sterility of medium). Moreover, a positive growth control (bacterial tested strain in the medium without extracts to compare the growth of cells with samples) and a sample control (extract solutions without inoculum to control the absorbance of the samples at different concentrations) were also added.
(§2) The same methods and media were used to determine the antimicrobial activity of synthetic peptides #3, #5, #7, and #14, and derivatives. They were dissolved in ultrapure water, or 1 mL ultrapure water with 40 μL NH4OH (28% v/v) in the case of peptide #14, to obtain a stock solution of 5 mg/mL. Working solutions of 250 μg/mL were prepared for each peptide in MHII or Sabouraud, and test solutions in a 96 wells plate were obtained by diluting in a series 1:2. Each assay was performed in triplicate.

[4] = tested on: C. albicans ATCC 10231 biofilm; experiment: Scanning electron microscopy of biofilm morphology; assay type: cell-based, Candida albicans; conditions: 25 μg/mL (sub-MIC), 24 h, versus control
Description: The morphological changes in C. albicans ATCC 10231 cells were assessed by scanning electron microscopy (SEM, Phenom ProX, PhenomWorld, Eindhoven, Netherlands), using the method described by Bezerra et al., with some modifications. Biofilms were fixed with a 4% formaldehyde solution in DPBS for 30 min at 37 °C. Then, the biofilms were washed three times with sodium phosphate buffer (pH = 7.4). Next, samples were dehydrated with increased ethanol concentrations (30%, 50%, 70%, and 100%) for 10 min at 24 °C. Lastly, the final dehydration was conducted with […] (HDMS) for 10 min, removing the solvent at the end of washing to allow the samples to air dry. The samples were analyzed by scanning electron microscopy (SEM, Phenom ProX, PhenomWorld).

C. albicans ATCC 10231 [5] = assay type: cell-based, Candida albicans
Description: as §1, §2

E. faecalis ATCC 29212 = assay type: cell-based, Enterococcus faecalis
Description: as §1, §2

S. aureus ATCC 25923 = assay type: cell-based, Staphylococcus aureus
Description: as §1, §2

P. aeruginosa ATCC 15442 = assay type: cell-based, Pseudomonas aeruginosa
Description: as §1, §2

selected strains = experiment: EC50 under low-salt conditions (viable count); assay type: cell-based; conditions: 10 mM sodium phosphate buffer, 100-0.15 μg/mL, 3 h 37 °C, CFU count, maximum tested 100 μg/mL
Description: The antimicrobial activity of the chemically synthesized peptides #3, #5, #7, and #14, and their derivatives, against selected strains were evaluated in terms of peptide half-maximal effective concentration to inhibit 50% of the viable bacteria (EC50), as reported by other authors. Briefly, 5 × 10^4 CFU per well of tested microorganisms were incubated with peptide concentrations from 100 to 0.15 μg/mL (1:2 serial dilutions) for 3 h at 37 °C in 100 μL of 10 mM sterile sodium phosphate buffer. After 3 h, 10 μL of each dilution was spotted in triplicate on Tryptic Soy Agar plates and incubated at 37 °C for 24 h. After the incubation time, the number of colonies from any sample were counted and compared with the CFU viable count of the none-treated growth control.

[6] = synthetic peptides, E. coli ATCC 25922, maximum tested 250 μg/mL, 1:2 dilutions, MHII, 37 °C 24 h, triplicate
[7] = synthetic peptides, E. faecalis ATCC 29212, maximum tested 250 μg/mL, 1:2 dilutions, MHII, 37 °C 24 h, triplicate
[8] = synthetic peptides, S. aureus ATCC 25923, maximum tested 250 μg/mL, 1:2 dilutions, MHII, 37 °C 24 h, triplicate
[9] = synthetic peptides, P. aeruginosa ATCC 15442, maximum tested 250 μg/mL, 1:2 dilutions, MHII, 37 °C 24 h, triplicate

Sequence	membrane integrity (PI uptake, red fluorescence) (C. albicans ATCC 10231 [1])	ROS overproduction (DCFH-DA fluorescence) (C. albicans ATCC 10231 [2])	BIC50 (biofilm inhibition concentration) (C. albicans ATCC 10231 [3])	minimal fungicidal concentration (MFC) (C. albicans)	MIC (E. coli ATCC 25922; ATCC 25922, 24 h)	biofilm morphology by SEM [4]	MIC (C. albicans ATCC 10231 [5]; ATCC 10231, 24 h)	MIC (E. faecalis ATCC 29212; ATCC 29212, 24 h)	MIC (S. aureus ATCC 25923; ATCC 25923, 24 h)	MIC (P. aeruginosa ATCC 15442; ATCC 15442, 24 h)	EC50 (concentration to inhibit 50% of the viable bacteria) (selected strains)	MIC (E. coli ATCC 25922; [6])	MIC (E. faecalis ATCC 29212; [7])	MIC (S. aureus ATCC 25923; [8])	MIC (P. aeruginosa ATCC 15442; [9])	MIC (C. albicans ATCC 10231 [5]; synthetic peptides, C. albicans ATCC 10231, maximum tested 250 μg/mL, 1:2 dilutions, Sabouraud, 37 °C 24 h, triplicate)
FHLVWRAGGTF [Peptide #14d]	damaged the cell membrane and induced an increase in red fluorescence intensity	did not induce ROS overproduction	23.2 µg/mL	62.5 µg/mL	> 250 µg/mL	evident variations in the morphology, inducing wrinkles and scars	31.2 µg/mL	> 250 µg/mL	> 250 µg/mL	> 250 µg/mL	–	–	–	–	–	–
FSLVNAVDQTT [Peptide #14]	–	–	–	–	> 250 µg/mL	–	> 250 µg/mL	> 250 µg/mL	> 250 µg/mL	> 250 µg/mL	> 100 µg/mL	–	–	–	–	–
IIIRKGRW [Peptide #3d]	–	–	–	–	> 250 µg/mL	–	–	> 250 µg/mL	> 250 µg/mL	> 250 µg/mL	–	–	–	–	–	–
NNWTGADCKAATLK [Peptide #5]	–	–	–	–	> 250 µg/mL	–	> 250 µg/mL	> 250 µg/mL	> 250 µg/mL	> 250 µg/mL	> 100 µg/mL	–	–	–	–	–
NWWTGARCKAATLK [Peptide #5d, synthetic derivative of natural peptide #5]	–	–	–	–	–	–	–	–	–	–	–	> 250 µg/mL	> 250 µg/mL	> 250 µg/mL	> 250 µg/mL	–
SSGYGGYGGGRF [Peptide #3]	–	–	–	–	–	–	–	–	–	–	> 100 µg/mL	> 250 µg/mL	> 250 µg/mL	> 250 µg/mL	> 250 µg/mL	> 250 µg/mL
YGGYFGNR [Peptide #7]	–	–	–	–	> 250 µg/mL	–	> 250 µg/mL	> 250 µg/mL	> 250 µg/mL	> 250 µg/mL	> 100 µg/mL	–	–	–	–	–
